Values quoted from earlier work in PMC4387274, “A phase 1 dose escalation study of BI 831266, an inhibitor of Aurora kinase B, in patients with advanced solid tumors” (Investigational New Drugs, 2014).

How the values were obtained:
acute myeloid leukemia = test system: acute myeloid leukemia; parameters: method as in PMID 23605952; conditions: compared with low-dose cytosine arabinoside control arm
[1] = 121 patients with solid malignancies

## CCN(CCCOc1ccc2c(Nc3cc(CC(=O)Nc4cccc(F)c4)n[nH]3)ncnc2c1)CCOP(=O)(O)O [barasertib]
Acute myeloid leukemia
  Objective clinical response rate: superior objective clinical response rate

## CC(C)NC(=O)[C@H]1CCC[C@H]1Nc1nc(Nc2ccc(C(=O)N(C)C3CCN(C)CC3)cc2)ncc1C(F)(F)F [BI 811283]
Solid malignancies; 105 mg in Schedule A
  Safety in ongoing phase 1 study: no significant safety issues
Solid malignancies; [1]
  Objective responses: no objective responses
  Patients achieving SD: a third of the patients
